Source: US10669242B2 (priority 2016, dated 2020)
Structures can show the parent of a compound that is named as a salt.

target: T1, recombinant glucosyltransferase domain of C. difficile Toxin B/TcdB (Clostridioides difficile, UniProt P18177); experiment: biochemical; conditions: not given
T1 construct: 6-His (C); purchased R&D Systems 6246-GT
T1 sequence (P18177 1-543): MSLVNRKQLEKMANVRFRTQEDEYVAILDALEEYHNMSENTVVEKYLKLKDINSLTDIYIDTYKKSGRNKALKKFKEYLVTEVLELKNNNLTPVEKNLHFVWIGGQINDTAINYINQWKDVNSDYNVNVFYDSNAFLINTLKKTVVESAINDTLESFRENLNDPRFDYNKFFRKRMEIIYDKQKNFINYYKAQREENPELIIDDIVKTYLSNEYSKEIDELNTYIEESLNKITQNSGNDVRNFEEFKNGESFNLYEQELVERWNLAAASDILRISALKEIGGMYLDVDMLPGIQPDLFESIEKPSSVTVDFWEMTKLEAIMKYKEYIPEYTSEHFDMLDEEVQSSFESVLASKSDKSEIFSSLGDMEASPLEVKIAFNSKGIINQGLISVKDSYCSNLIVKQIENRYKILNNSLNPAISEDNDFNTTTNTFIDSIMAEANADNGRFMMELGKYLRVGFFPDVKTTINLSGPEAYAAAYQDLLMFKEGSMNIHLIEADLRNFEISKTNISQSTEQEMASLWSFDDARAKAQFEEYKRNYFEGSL

| SMILES | IC50 [nM] |
| --- | --- |
| O=C(c1ccc(CN2C(=O)c3ccc(Cl)cc3NC(=O)[C@H]2Cc2ccccn2)cc1)c1c[nH]c2cccnc12 [Example 32a, 4-(4-(1H-Pyrrolo[3,2-b]pyridine-3-carbonyl)benzyl)-8-chloro-3-(pyridin-2-ylmethyl)-3,4-dihydro-1H-benzo[e][1,4]diazepine-2,5-dione] | < 100 |
| O=C1Nc2cc(Cl)ccc2C(=O)N(C[C@H]2CC[C@H](C(=O)Nc3ccccn3)CC2)[C@@H]1Cc1cccnc1 [Example 35l] | 100 to 999 |
| O=C(Nc1ccccn1)c1ccc(CN2C(=O)c3ccc(Cl)cc3NC(=O)[C@@H]2Cc2cccnc2)cc1 [Example 35m] | 100 to 999 |
| O=C(Nc1ccccn1)c1ccc(CN2C(=O)c3ccncc3NC(=O)[C@H]2Cc2cccnc2)cc1 [Example 35n] | 100 to 999 |
| O=C1Nc2cc(Cl)ccc2C(=O)N(Cc2ccc(S(=O)(=O)Nc3ccccn3)cc2)[C@@H]1Cc1cccnc1 [Example 36a, (R)-4-((8-Chloro-2,5-dioxo-3-(pyridin-3-ylmethyl)-2,3-dihydro-1H-benzo[e][1,4]diazepin-4(5H)-yl)methyl)-N-(pyridin-2-yl)benzenesulfonamide] | 1000 to 10000 |
| O=C1Nc2cc(Cl)ccc2C(=O)N(Cc2ccc3c(c2)CCN(c2ccccn2)C3=O)[C@@H]1Cc1ccccn1 [Example 37a, (R)-8-Chloro-4-((1-oxo-2-(pyridin-2-yl)-1,2,3,4-tetrahydroisoquinolin-6-yl)methyl)-3-(pyridin-2-ylmethyl)-3,4-dihydro-1H-benzo[e][1,4]diazepine-2,5-dione] | 1000 to 10000 |
| COc1ccc(COc2cc(CN3C(=O)c4ccc(Cl)cc4NC(=O)[C@H]3C)ccc2C(=O)O)cc1 [Example 38a, (R)-2-(4-Methoxybenzyloxy)-4-((8-chloro-3-methyl-2,5-dioxo-2,3-dihydro-1H-benzo[e][1,4]diazepin-4(5H)-yl)methyl)benzoic Acid] | 10000 to 35000 |
| Cc1ccc(NC(=O)c2ccc(CN3C(=O)c4ccc(NS(C)(=O)=O)cc4NC(=O)[C@H]3C)cc2)nc1 [Example 39a, (R)-4-((3-Methyl-8-(methylsulfonamido)-2,5-dioxo-2,3-dihydro-1H-benzo[e][1,4]diazepin-4(5H)-yl)methyl)-N-(5-methylpyridin-2-yl)benzamide] | 10000 to 35000 |
| O=C(NO)c1ccc(CN2C(=O)c3ccc(Cl)cc3NC(=O)[C@H]2Cc2ccccn2)cc1 [Example 40a, (R)-4-((8-Chloro-2,5-dioxo-3-(pyridin-2-ylmethyl)-2,3-dihydro-1H-benzo[e][1,4]diazepin-4(5H)-yl)methyl)-N-hydroxybenzamide] | < 100 |
| O=C1Nc2cc(Cl)ccc2C(=O)N(Cc2ccc(CO)cc2)[C@@H]1Cc1ccccn1 [Example 41a, 8-Chloro-4-(4-(hydroxymethyl)benzyl)-3-(pyridin-2-ylmethyl)-3,4-dihydro-1H-benzo[e][1,4]diazepine-2,5-dione] | 1000 to 10000 |
| O=C1Nc2cc(Cl)ccc2C(=O)N(CC2CCN(C(=O)Nc3ccccn3)CC2)[C@@H]1Cc1ccccn1 [Example 42a, (R)-4-((8-Chloro-2,5-dioxo-3-(pyridin-2-ylmethyl)-2,3-dihydro-1H-benzo[e][1,4]diazepin-4(5H)-yl)methyl)-N-(pyridin-2-yl)piperidine-1-carboxamide] | 1000 to 10000 |
| Cn1cc(C(=O)N2CCC(CN3C(=O)c4ccc(Cl)cc4NC(=O)[C@H]3Cc3ccccn3)CC2)c2ncccc21 [Example 43a, (R)-8-Chloro-4-((1-(1-methyl-1H-pyrrolo[3,2-b]pyridine-3-carbonyl)piperidin-4-yl)methyl)-3-(pyridin-2-ylmethyl)-3,4-dihydro-1H-benzo[e][1,4]diazepine-2,5-dione] | 1000 to 10000 |
| Cc1ccc(Nc2nn(C)c3cc(CN4C(=O)c5ccc(Cl)cc5NC(=O)[C@H]4Cc4ccccn4)ccc23)nc1 [Example 44a, (R)-8-Chloro-4-((1-methyl-3-((5-methylpyridin-2-yl)amino)-1H-indazol-6-yl)methyl)-3-(pyridin-2-ylmethyl)-3,4-dihydro-1H-benzo[e][1,4]diazepine-2,5-dione] | 100 to 999 |
| Nc1cccnc1C(=O)Nc1ccc(CN2C(=O)c3ccc(Cl)cc3NC(=O)[C@H]2Cc2ccccn2)cc1 [Example 45a, (R)-3-Amino-N-(4-((8-chloro-2,5-dioxo-3-(pyridin-2-ylmethyl)-2,3-dihydro-1H-benzo[e][1,4]diazepin-4(5H)-yl)methyl)phenyl)picolinamide] | < 100 |
| O=C1Nc2cc(Cl)ccc2C(=O)N(Cc2ccc(-n3cnc4cccnc4c3=O)cc2)[C@@H]1Cc1ccccn1 [Example 46a, (R)-8-Chloro-4-(4-(4-oxopyrido[3,2-c]pyrimidin-3(4H)-yl)benzyl)-3-(pyridin-2-ylmethyl)-3,4-dihydro-1H-benzo[e][1,4]diazepine-2,5-dione] | < 100 |
| Cc1nc2cccnc2c(=O)n1-c1ccc(CN2C(=O)c3ccc(Cl)cc3NC(=O)[C@H]2Cc2ccccn2)cc1 [Example 47a, (R)-8-Chloro-4-(4-(2-methyl-4-oxopyrido[3,2-d]pyrimidin-3(4H)-yl)benzyl)-3-(pyridin-2-ylmethyl)-3,4-dihydro-1H-benzo[e][1,4]diazepine-2,5-dione] | < 100 |
| O=C(Nc1ccc(N2CCNCC2)cn1)c1ccc(CN2C(=O)c3ccc(Cl)cc3NC(=O)[C@H]2Cc2ccccn2)cc1 [Example 48a, (R)-4-((8-Chloro-2,5-dioxo-3-(pyridin-2-ylmethyl)-2,3-dihydro-1H-benzo[e][1,4]diazepin-4(5H)-yl)methyl)-N-(5-(piperazin-1-yl)pyridin-2-yl)benzamide hydrochloride] | < 100 |
| O=C(Nc1ncc(C(F)(F)F)cn1)c1ccc(CN2C(=O)c3ccc(Cl)cc3NC(=O)[C@H]2Cc2ccccn2)cc1 [Example 49a, (R)-4-((8-Chloro-2,5-dioxo-3-(pyridin-2-ylmethyl)-2,3-dihydro-1H-benzo[e][1,4]diazepin-4(5H)-yl)methyl)-N-(5-(trifluoromethyl)pyrimidin-2-yl)benzamide] | < 100 |
| O=C1Nc2cc(Cl)ccc2C(=O)N(Cc2ccc3c(c2)CN(c2ccccn2)C3=O)[C@@H]1Cc1ccccn1 [Example 49d] | 100 to 999 |
| O=C1Nc2cc(Cl)ccc2C(=O)N(Cc2ccc3c(Nc4ccccn4)nccc3c2)[C@@H]1Cc1ccccn1 [Example 49e] | < 100 |
| CC1C(=O)Nc2cc(Cl)ccc2C(=O)N1C1(c2ccc(C(=O)c3cccn4ccnc34)cc2)CC1 (stereo not drawn) [Example 50a, 8-Chloro-4-(1-(4-(imidazo[1,2-α]pyridine-8-carbonyl)phenyl)cyclopropyl)-3-methyl-3,4-dihydro-1H-benzo[e][1,4]diazepine-2,5-dione] | 100 to 999 |
| O=C1Nc2cc(Cl)ccc2C(=O)N(Cc2ccc(C(O)c3ccccn3)cc2)[C@@H]1Cc1ccccn1 (stereo partly drawn) [Example 51a, (3R)-8-Chloro-4-(4-(hydroxy(pyridin-2-yl)methyl)benzyl)-3-(pyridin-2-ylmethyl)-3,4-dihydro-1H-benzo[e][1,4]diazepine-2,5-dione] | 1000 to 10000 |
| Cn1cccc(C(=O)c2ccc(CN3C(=O)c4ccc(Cl)cc4NC(=O)[C@H]3Cc3ccccn3)cc2)c1=O [Example 53a] | 100 to 999 |
| C[C@@H]1C(=O)Nc2cc(Cl)ccc2C(=O)N1Cc1ccc(C(=O)Nc2ccc(C(F)(F)F)cn2)c(-c2ccc3c(c2)OCO3)c1 [Example 54a] | 1000 to 10000 |

system: C. difficile toxin (TcdA and TcdB, ~1:1); experiment: Murine C. difficile toxin model (intrarectal toxin); assay type: in vivo, C57BL/6 mice; conditions: murine C. difficile toxin model, PO, 50 mg/kg body weight
Description: In the following studies, we established a murine C. difficile toxin model with modifications from a published murine model (Hirota, Iablokov et al. 2012). Details of the murine C. difficile toxin model are described in the “Experimental Protocols” (below). C. difficile toxins were isolated from a culture of the C. difficile strain VPI 10463. C. difficile toxins consisted of TcdA and TcdB (˜1:1 ratio of TcdA:TcdB). Respective TcdA and TcdB concentrations were determined by enzyme-linked immunosorbant assay (ELISA). In our mouse model, C. difficile toxins were administered intrarectally to evaluate their pathological effects.
We administered C. difficile toxin (12.5 μg/mouse) via intrarectal instillation into female C57BL/6 mice. Four (4) animals were used in each group. Four (4) hours after the toxin administration, the mice were euthanized. The colons were excised from the animals and washed with phosphate buffered saline (PBS). The colon lengths were measured. Excised colon tissues were stored at −70° C. for chemical analysis of interleukin-1β(IL-1β) and myeloperosidase (MPO) in tissues, which are the hallmarks of colon inflammation. Excised colon tissues were also stored at room temperature in 10% neutral buffered formalin for histopathological analysis.
Using the murine C. difficile toxin model (Example 61), we evaluated the efficacy of Example 6a in reducing the C. difficile toxin activity. In this study, the isolated toxin (12.5 μg) was diluted in 50 μl of PBS and mixed with a 50 μl suspension of Example 6a (10 mg/mL) in 1% carboxymethyl cellulose and 0.5% Tween 80 to achieve a fixed dose of […] of Example 6a (0.5 mg in mice weighing ˜20 g) and C. difficile toxin (12.5 μg). Three (3) animals were used in each group.
In this study, we evaluated the efficacy of Example 6a via different routes of administration (i.e., oral (PO) and intraperitoneal (IP) administrations) in the same murine C. difficile toxin model (Example 61). In both PO and IP dosages, Example 6a was prepared as 5 mg/mL solutions in 20% PEG-400, 0.4% carboxymethyl cellulose and 0.2% Tween 80. Example 6a was administered at a final dose of 50 mg/kg body weight. Three (3) mice were used in each group (i.e., vehicle (control), PO and IP).
Using the murine C. difficile toxin model (Example 63), we further tested the efficacy of four (4) additional compounds (i.e., Example 6a, Example 5ae, Example 4cl, and Example 5al) via PO administration. All of the compounds were dosed orally at 50 mg/kg body weight. In three separate studies a total of three (3) to fourteen (14) mice were used in each group.
We evaluated the efficacy of additional compounds in reducing C. difficile toxicity. Using the PO administration (Example 63), we further tested 30 compounds (Table 34). All of the compounds were dosed orally at 50 mg/kg body weight. Three (3) to fourteen (14) animals were used for each compound. % inhibition was determined by the following formula: […]
An overnight culture of C. difficile strain VPI 10463 (American Type Culture Collection) was grown at 37° C. in Brain-Heart Infusion (BHI) broth using the GasPak EZ Anaerobe Pouch System (Becton Dickinson). 2 mL of the culture was added to 28 mL of phosphate buffered saline (PBS) in a gamma-irradiated, 10,000 molecular weight cut-off, 30-70 ml Slide-A-Lyzer G2 dialysis cassette (Pierce). This cassette was submerged in 1 L of BHI broth in a 2 L beaker and incubated under anaerobic conditions for 5 days at 37° C. The culture was then transferred to a 50 mL conical tube and the cassette was washed with 10 mL of PBS. The combined culture and wash were centrifuged at 2,000 g for 20 minutes to pellet the bacteria and the supernatant was filtered through a 0.2 μm syringe filter. The filtrate was then applied to a 20 mL 150 K molecular weight cut-off concentration column (Pierce) and centrifuged at 2,000 g for 15 minutes. Concentrated supernatant was stored at 4° C. […]

| SMILES | IL-1β (% Inhibition) [%] | MPO (% Inhibition) [%] |
| --- | --- | --- |
| O=C(c1ccc(CN2C(=O)c3ccc(Cl)cc3NC(=O)[C@H]2Cc2ccccn2)cc1)c1c[nH]c2cccnc12 [Example 32a, 4-(4-(1H-Pyrrolo[3,2-b]pyridine-3-carbonyl)benzyl)-8-chloro-3-(pyridin-2-ylmethyl)-3,4-dihydro-1H-benzo[e][1,4]diazepine-2,5-dione] | 72 | 76 |
